Data: patent publication US20250215012A1, “IKZF2 DEGRADERS AND USES THEREOF” (REGENTS OF THE UNIVERSITY OF MICHIGAN, priority 2022, published 2025)
Like-named read-outs stand apart in the source and are kept apart here.

Molecular target: IKZF2 (Homo sapiens (Human), UniProt Q96SW2+Q9UKS7)
Assay: IKZF2 HiBiT Assay (Jurkat-IKZF2-HiBiT cell line)
Assay type: cell-based
Details: for DC50: read-out: HiBit assay degradation analysis DC50; for Dmax: read-out: HiBit assay degradation analysis Dmax
Method in brief: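 IKZF2 degradation was assessed as HiBiT luminescence in Jurkat-IKZF2-HiBiT cells, using lytic detection after 24 h of compound treatment at 37 °C, 5% CO2.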

[1] = Jurkat-IKZF2-HiBiT cells, 24 hours

Sequence of IKZF2 (Q9UKS7 whole entry): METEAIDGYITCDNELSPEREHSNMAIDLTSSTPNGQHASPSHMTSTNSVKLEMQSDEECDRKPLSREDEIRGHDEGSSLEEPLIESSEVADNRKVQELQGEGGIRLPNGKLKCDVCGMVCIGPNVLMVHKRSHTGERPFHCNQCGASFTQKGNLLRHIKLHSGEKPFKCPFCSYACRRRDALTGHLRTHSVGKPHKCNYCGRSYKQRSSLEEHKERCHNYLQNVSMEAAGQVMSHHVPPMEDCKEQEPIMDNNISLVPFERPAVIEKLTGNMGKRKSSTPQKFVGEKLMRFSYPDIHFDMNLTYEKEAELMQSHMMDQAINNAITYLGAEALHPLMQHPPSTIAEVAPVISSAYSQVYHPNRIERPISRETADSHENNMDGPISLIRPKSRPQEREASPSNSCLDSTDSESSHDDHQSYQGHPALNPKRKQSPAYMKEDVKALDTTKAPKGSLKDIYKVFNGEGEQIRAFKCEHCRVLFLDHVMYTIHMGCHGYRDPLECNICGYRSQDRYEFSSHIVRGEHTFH
Sequence of IKZF2 (Q96SW2 whole entry): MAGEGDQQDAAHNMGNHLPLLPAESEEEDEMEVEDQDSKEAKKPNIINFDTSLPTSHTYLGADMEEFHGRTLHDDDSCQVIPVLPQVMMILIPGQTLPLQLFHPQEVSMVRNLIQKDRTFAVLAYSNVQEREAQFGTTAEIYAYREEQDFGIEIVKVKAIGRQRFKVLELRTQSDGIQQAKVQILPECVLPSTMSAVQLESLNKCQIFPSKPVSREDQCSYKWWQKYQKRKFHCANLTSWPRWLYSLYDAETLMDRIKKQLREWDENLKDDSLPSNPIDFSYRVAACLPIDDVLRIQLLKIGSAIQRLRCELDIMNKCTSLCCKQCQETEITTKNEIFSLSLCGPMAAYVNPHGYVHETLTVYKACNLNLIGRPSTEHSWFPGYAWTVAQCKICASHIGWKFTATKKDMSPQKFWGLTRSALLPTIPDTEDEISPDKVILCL
Sequence of IKZF2 (Q16531 whole entry partner): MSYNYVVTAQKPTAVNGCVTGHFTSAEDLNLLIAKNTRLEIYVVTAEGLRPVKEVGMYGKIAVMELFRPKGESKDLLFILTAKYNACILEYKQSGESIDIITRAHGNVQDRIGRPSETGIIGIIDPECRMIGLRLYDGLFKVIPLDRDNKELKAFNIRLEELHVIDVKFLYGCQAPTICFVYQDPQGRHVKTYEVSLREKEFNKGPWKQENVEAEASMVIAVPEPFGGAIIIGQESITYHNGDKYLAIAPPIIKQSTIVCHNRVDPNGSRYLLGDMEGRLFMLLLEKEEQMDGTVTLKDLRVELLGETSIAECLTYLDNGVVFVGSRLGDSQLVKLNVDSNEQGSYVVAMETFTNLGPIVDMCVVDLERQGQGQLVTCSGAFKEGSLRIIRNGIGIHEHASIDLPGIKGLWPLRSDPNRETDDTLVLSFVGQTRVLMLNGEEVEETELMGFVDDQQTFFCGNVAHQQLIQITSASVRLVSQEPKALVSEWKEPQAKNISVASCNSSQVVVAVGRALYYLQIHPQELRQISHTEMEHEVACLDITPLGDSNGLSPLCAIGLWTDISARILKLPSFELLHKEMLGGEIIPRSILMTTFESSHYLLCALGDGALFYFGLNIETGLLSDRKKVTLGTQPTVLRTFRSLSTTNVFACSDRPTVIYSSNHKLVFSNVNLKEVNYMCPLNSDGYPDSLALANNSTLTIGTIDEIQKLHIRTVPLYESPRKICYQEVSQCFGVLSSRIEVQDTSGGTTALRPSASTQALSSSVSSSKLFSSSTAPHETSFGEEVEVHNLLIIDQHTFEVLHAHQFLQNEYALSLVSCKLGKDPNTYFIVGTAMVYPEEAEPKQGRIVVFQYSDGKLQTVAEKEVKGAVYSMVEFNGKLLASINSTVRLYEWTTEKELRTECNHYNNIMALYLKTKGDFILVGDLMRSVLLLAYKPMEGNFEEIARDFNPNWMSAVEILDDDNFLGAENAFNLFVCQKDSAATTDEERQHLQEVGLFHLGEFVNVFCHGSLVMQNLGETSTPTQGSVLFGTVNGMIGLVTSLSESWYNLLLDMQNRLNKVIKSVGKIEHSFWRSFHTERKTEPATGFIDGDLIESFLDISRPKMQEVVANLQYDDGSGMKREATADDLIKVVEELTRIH

Compound	DC50 [1]	Dmax [1]	Dmax
O=C1CCC(N2Cc3c(ccc4c3OCC43CCN(Cc4ccccc4-n4cccn4)CC3)C2=O)C(=O)N1 (stereo not shown) [Compound A156, 3-(1′-(2-(1H-pyrazol-1-yl)benzyl)-6-oxo-6,8-dihydro-2H,7H-spiro[furo[2,3-e]isoindole-3,4′-piperidin]-7-yl)piperidine-2,6-dione]	> 500 nM	< 40%	–
O=C1CCC(N2Cc3c(ccc4c3OCC43CCN(Cc4ccccc4OCc4ccccn4)CC3)C2=O)C(=O)N1 (stereo not shown) [Compound A157, 3-(6-oxo-1′-(2-(pyridin-2-ylmethoxy)benzyl)-6,8-dihydro-2H,7H-spiro[furo[2,3-e]isoindole-3,4′-piperidin]-7-yl)piperidine-2,6-dione]	< 50 nM	60 to 80%	–
O=C1CCC(N2Cc3c(ccc4c3OCC43CCN(Cc4ncsc4-c4ccccc4)CC3)C2=O)C(=O)N1 (stereo not shown) [Compound A158, 3-(6-oxo-1′-((5-phenylthiazol-4-yl)methyl)-6,8-dihydro-2H,7H-spiro[furo[2,3-e]isoindole-3,4′-piperidin]-7-yl)piperidine-2,6-dione]	> 500 nM	< 40%	–
CS(=O)(=O)Nc1cccc(CN2CCC3(CC2)COc2c3ccc3c2CN(C2CCC(=O)NC2=O)C3=O)c1 (stereo not shown) [Compound A159, N-(3-((7-(2,6-dioxopiperidin-3-yl)-6-oxo-7,8-dihydro-2H,6H-spiro[furo[2,3-e]isoindole-3,4′-piperidin]-1′-yl)methyl)phenyl) methanesulfonamide]	> 500 nM	40 to 60%	–
O=C1CCC(N2Cc3c(ccc4c3OCC43CCN(Cc4ccc(-c5cn[nH]c5)cc4)CC3)C2=O)C(=O)N1 (stereo not shown) [Compound A162, 3-(1′-(4-(1H-pyrazol-4-yl)benzyl)-6-oxo-6,8-dihydro-2H,7H-spiro[furo[2,3-e]isoindole-3,4′-piperidin]-7-yl)piperidine-2,6-dione]	50 to 200 nM	60 to 80%	–
O=C1CCC(N2Cc3c(ccc4c3OCC43CCN(Cc4cnc5[nH]ccc5c4)CC3)C2=O)C(=O)N1 (stereo not shown) [Compound A163, 3-(1′-((1H-pyrrolo[2,3-b]pyridin-5-yl)methyl)-6-oxo-6,8-dihydro-2H,7H-spiro[furo[2,3-e]isoindole-3,4′-piperidin]-7-yl)piperidine-2,6-dione]	< 50 nM	60 to 80%	–
O=C1CCC(N2Cc3c(ccc4c3OCC43CCN(Cc4ccc5oc(=O)[nH]c5c4)CC3)C2=O)C(=O)N1 (stereo not shown) [Compound A165, 3-(6-oxo-1′-((2-oxo-2,3-dihydrobenzo[d]oxazol-5-yl)methyl)-6,8-dihydro-2H,7H-spiro[furo[2,3-e]isoindole-3,4′-piperidin]-7-yl)piperidine-2,6-dione]	50 to 200 nM	60 to 80%	–
CN(C(=O)c1cccc(CN2CCC3(CC2)COc2c3ccc3c2CN(C2CCC(=O)NC2=O)C3=O)c1)c1cccc(F)c1 (stereo not shown) [Compound A166, 3-((7-(2,6-dioxopiperidin-3-yl)-6-oxo-7,8-dihydro-2H,6H-spiro[furo[2,3-e]isoindole-3,4′-piperidin]-1′-yl)methyl)-N-(3-fluorophenyl)-N-methylbenzamide]	50 to 200 nM	40 to 60%	–
Cn1ccc(COc2cccc(CN3CCC4(CC3)COc3c4ccc4c3CN(C3CCC(=O)NC3=O)C4=O)c2)n1 (stereo not shown) [Compound A167, 3-(1′-(3-((1-methyl-1H-pyrazol-3-yl)methoxy)benzyl)-6-oxo-6,8-dihydro-2H,7H-spiro[furo[2,3-e]isoindole-3,4′-piperidin]-7-yl)piperidine-2,6-dione]	50 to 200 nM	40 to 60%	–
Cn1cc2ccc(CN3CCC4(CC3)COc3c4ccc4c3CN([C@H]3CCC(=O)NC3=O)C4=O)cc2n1 [Compound A169, (S)-3-(1′-((2-methyl-2H-indazol-6-yl)methyl)-6-oxo-6,8-dihydro-2H,7H-spiro[furo[2,3-e]isoindole-3,4′-piperidin]-7-yl)piperidine-2,6-dione]	< 50 nM	60 to 80%	–
O=C1CC[C@H](N2Cc3c(ccc4c3OCC43CCN(Cc4ccc5c(c4)C(=O)NC5)CC3)C2=O)C(=O)N1 [Compound A171, (S)-3-(6-oxo-1′-((3-oxoisoindolin-5-yl)methyl)-6,8-dihydro-2H,7H-spiro[furo[2,3-e]isoindole-3,4′-piperidin]-7-yl)piperidine-2,6-dione]	50 to 200 nM	60 to 80%	–
O=C1CC[C@H](N2Cc3c(ccc4c3OCC43CCN(Cc4ccc5cc[nH]c5c4)CC3)C2=O)C(=O)N1 [Compound A172, (S)-3-(1′-((1H-indol-6-yl)methyl)-6-oxo-6,8-dihydro-2H,7H-spiro[furo[2,3-e]isoindole-3,4′-piperidin]-7-yl)piperidine-2,6-dione]	< 50 nM	60 to 80%	–
O=C1CC[C@H](N2Cc3c(ccc4c3OCC43CCN(Cc4ccc5c(c4)NC(=O)C5)CC3)C2=O)C(=O)N1 [Compound A173, (S)-3-(6-oxo-1′-((2-oxoindolin-6-yl)methyl)-6,8-dihydro-2H,7H-spiro[furo[2,3-e]isoindole-3,4′-piperidin]-7-yl)piperidine-2,6-dione]	50 to 200 nM	60 to 80%	–
O=C1CCC(N2Cc3c(ccc4c3OCC43CCN(Cc4cccc(-c5cnn(C6CC6)c5)c4)CC3)C2=O)C(=O)N1 (stereo not shown) [Compound A174, 3-(1′-(3-(1-cyclopropyl-1H-pyrazol-4-yl)benzyl)-6-oxo-6,8-dihydro-2H,7H-spiro[furo[2,3-e]isoindole-3,4′-piperidin]-7-yl)piperidine-2,6-dione]	< 50 nM	60 to 80%	–
Cn1c(=O)oc2ccc(CN3CCC4(CC3)COc3c4ccc4c3CN(C3CCC(=O)NC3=O)C4=O)cc21 (stereo not shown) [Compound A175, 3-(1′-((3-methyl-2-oxo-2,3-dihydrobenzo[d]oxazol-5-yl)methyl)-6-oxo-6,8-dihydro-2H,7H-spiro[furo[2,3-e]isoindole-3,4′-piperidin]-7-yl)piperidine-2,6-dione]	> 500 nM	< 40%	–
CC(=O)Nc1cccc(CN2CCC3(CC2)COc2c3ccc3c2CN(C2CCC(=O)NC2=O)C3=O)c1 (stereo not shown) [Compound A176, N-(3-((7-(2,6-dioxopiperidin-3-yl)-6-oxo-7,8-dihydro-2H,6H-spiro[furo[2,3-e]isoindole-3,4′-piperidin]-1′-yl)methyl)phenyl) acetamide]	> 500 nM	40 to 60%	–
COc1ccc(C(=O)Nc2cccc(CN3CCC4(CC3)COc3c4ccc4c3CN(C3CCC(=O)NC3=O)C4=O)c2)cc1 (stereo not shown) [Compound A177, N-(3-((7-(2,6-dioxopiperidin-3-yl)-6-oxo-7,8-dihydro-2H,6H-spiro[furo[2,3-e]isoindole-3,4′-piperidin]-1′-yl)methyl)phenyl)-4-methoxybenzamide]	< 50 nM	> 80%	–
O=C1CCC(N2Cc3c(ccc4c3OCC43CCN(Cc4cccc(NC(=O)c5ccc(Cl)cc5)c4)CC3)C2=O)C(=O)N1 (stereo not shown) [Compound A178, 4-chloro-N-(3-((7-(2,6-dioxopiperidin-3-yl)-6-oxo-7,8-dihydro-2H,6H-spiro[furo[2,3-e]isoindole-3,4′-piperidin]-1′-yl)methyl)phenyl)benzamide]	< 50 nM	> 80%	–
Cc1ccc(C(=O)Nc2cccc(CN3CCC4(CC3)COc3c4ccc4c3CN(C3CCC(=O)NC3=O)C4=O)c2)cc1 (stereo not shown) [Compound A179, N-(3-((7-(2,6-dioxopiperidin-3-yl)-6-oxo-7,8-dihydro-2H,6H-spiro[furo[2,3-e]isoindole-3,4′-piperidin]-1′-yl)methyl)phenyl)-4-methylbenzamide]	< 50 nM	–	> 80%
O=C1CCC(N2Cc3c(ccc4c3OCC43CCN(CC4CCCC(c5ccccc5)C4)CC3)C2=O)C(=O)N1 (stereo not shown) [Compound A181, 3-(6-oxo-1′-((3-phenylcyclohexyl)methyl)-6,8-dihydro-2H,7H-spiro[furo[2,3-e]isoindole-3,4′-piperidin]-7-yl)piperidine-2,6-dione]	200 to 500 nM	40 to 60%	–
O=C1CCC(N2Cc3c(ccc4c3OCC43CCN(Cc4cccs4)CC3)C2=O)C(=O)N1 (stereo not shown) [Compound A182, 3-(6-oxo-1′-(thiophen-2-ylmethyl)-6,8-dihydro-2H,7H-spiro[furo[2,3-e]isoindole-3,4′-piperidin]-7-yl)piperidine-2,6-dione]	> 500 nM	40 to 60%	–
O=C1CCC(N2Cc3c(ccc4c3OCC43CCN(Cc4ccsc4)CC3)C2=O)C(=O)N1 (stereo not shown) [Compound A183, 3-(6-oxo-1′-(thiophen-3-ylmethyl)-6,8-dihydro-2H,7H-spiro[furo[2,3-e]isoindole-3,4′-piperidin]-7-yl)piperidine-2,6-dione]	200 to 500 nM	40 to 60%	–
O=C1CCC(N2Cc3c(ccc4c3OCC43CCN(Cc4cc5ccccc5s4)CC3)C2=O)C(=O)N1 (stereo not shown) [Compound A184, 3-(1′-(benzo[b]thiophen-2-ylmethyl)-6-oxo-6,8-dihydro-2H,7H-spiro[furo[2,3-e]isoindole-3,4′-piperidin]-7-yl)piperidine-2,6-dione]	> 500 nM	< 40%	–
O=C1CCC(N2Cc3c(ccc4c3OCC43CCN(Cc4csc5ccccc45)CC3)C2=O)C(=O)N1 (stereo not shown) [Compound A185, 3-(1′-(benzo[b]thiophen-3-ylmethyl)-6-oxo-6,8-dihydro-2H,7H-spiro[furo[2,3-e]isoindole-3,4′-piperidin]-7-yl)piperidine-2,6-dione]	< 50 nM	60 to 80%	–
O=C1CCC(N2Cc3c(ccc4c3OCC43CCN(Cc4cccc5sccc45)CC3)C2=O)C(=O)N1 (stereo not shown) [Compound A186, 3-(1′-(benzo[b]thiophen-4-ylmethyl)-6-oxo-6,8-dihydro-2H,7H-spiro[furo[2,3-e]isoindole-3,4′-piperidin]-7-yl)piperidine-2,6-dione]	< 50 nM	> 80%	–
O=C1CCC(N2Cc3c(ccc4c3OCC43CCN(Cc4cccc5ccsc45)CC3)C2=O)C(=O)N1 (stereo not shown) [Compound A189, 3-(1′-(benzo[b]thiophen-7-ylmethyl)-6-oxo-6,8-dihydro-2H,7H-spiro[furo[2,3-e]isoindole-3,4′-piperidin]-7-yl)piperidine-2,6-dione]	50 to 200 nM	60 to 80%	–
